Data on eight compounds can be found in ChEMBL document CHEMBL5244281, “Tackling multidrug-resistant Staphylococcus aureus by natural products and their analogues acting as NorA efflux pump inhibitors” (Bioorg Med Chem, 2023).

Molecules are shown by their SMILES. Values after ≈ are worked out from the molar mass of the structure shown.

Assay [1] relates to Staphylococcus aureus. Kind of assay: Antimicrobial activity against Staphylococcus aureus ATCC 29213 assessed as bacterial growth inhibition incubated for 18 hrs by broth microdilution assay. The assay is classed as functional. Background: In broth dilution the organism is exposed to a series of concentrations in liquid medium.
Assay [2] deals with Staphylococcus aureus. Kind of assay: Antimicrobial activity against Staphylococcus aureus ATCC 43300 assessed as bacterial growth inhibition incubated for 18 hrs by broth microdilution assay. The assay is classed as functional.
Assay [3] deals with Staphylococcus aureus. Kind of assay: Antimicrobial activity against Staphylococcus aureus BAA-44 assessed as bacterial growth inhibition incubated for 18 hrs by broth microdilution assay. The assay is classed as functional.
Assay [4] relates to Escherichia coli. Kind of assay: Antimicrobial activity against Escherichia coli ATCC 25922 assessed as bacterial growth inhibition incubated for 18 hrs by broth microdilution assay. It counts as functional.
The test system of assay [5] is Enterococcus faecalis. Kind of assay: Antimicrobial activity against Enterococcus faecalis ATCC 29212 assessed as bacterial growth inhibition incubated for 18 hrs by broth microdilution assay. The assay is classed as functional.
Assay [6] has as its system Enterococcus faecium. Description: Antimicrobial activity against Enterococcus faecium ATCC 700221 assessed as bacterial growth inhibition incubated for 18 hrs by broth microdilution assay. The assay is classed as functional.
Assay [7] relates to Klebsiella pneumoniae. Description: Antimicrobial activity against Klebsiella pneumoniae 1213-2 assessed as bacterial growth inhibition incubated for 18 hrs by broth microdilution assay. It counts as functional.
Assay [8] has as its system Staphylococcus aureus. Description: Antibacterial activity against norfloxacin resistant Staphylococcus aureus IS-58 overexpressing TetK efflux pump gene assessed as bacterial growth inhibition incubated for 24 hrs by CLSI protocol based microdilution method. The assay is classed as functional.
Assay [9] concerns Staphylococcus aureus. Kind of assay: Antibacterial activity against norfloxacin resistant Staphylococcus aureus RN4220 overexpressing […] efflux pump gene assessed as bacterial growth inhibition incubated for 24 hrs by CLSI protocol based microdilution method. It counts as functional.
The subject of assay [10] is Staphylococcus aureus. Kind of assay: Antibacterial activity against norfloxacin resistant Staphylococcus aureus 1199B overexpressing NorA efflux pump gene assessed as bacterial growth inhibition incubated for 24 hrs by CLSI protocol based microdilution method. The assay is classed as functional.
Assay [11] relates to Staphylococcus aureus. Description: Antibacterial activity against methicillin-resistant Staphylococcus aureus 1199B overexpressing NorA gene assessed as bacterial growth inhibition. It counts as functional.
The test system of assay [12] is Staphylococcus aureus. Description: Synergistic antibacterial activity against Staphylococcus aureus 1199B overexpressing NorA gene assessed as fractional inhibitory concentration index at 2 ug/ml in presence of norfloxacin. It counts as functional. As to conditions: dose 2 µg/ml.
Assay [13] relates to Staphylococcus aureus. Description: Antibacterial activity against norfloxacin resistant Staphylococcus aureus 1199B overexpressing NorA assessed as bacterial growth inhibition incubated for 24 hrs by resazurin based microdilution assay. The assay is classed as functional. For orientation: Resazurin is reduced to fluorescent resorufin, in cell work by metabolically active cells.

Assay [14] relates to Staphylococcus aureus. Kind of assay: Antibacterial activity against Staphylococcus aureus ATCC 25923 assessed as bacterial growth inhibition incubated for 24 hrs by resazurin based microdilution assay. It counts as functional.
For assay [15], the system named is Staphylococcus aureus. Description: Antibacterial activity against Staphylococcus aureus 1199 assessed as bacterial growth inhibition incubated for 24 hrs by resazurin based microdilution assay. It counts as functional.
Assay [16] relates to Staphylococcus aureus. Description: Antibacterial activity against Staphylococcus aureus SA10 assessed as bacterial growth inhibition incubated for 24 hrs by resazurin based microdilution assay. It counts as functional.
For assay [17], the system named is Escherichia coli. Kind of assay: Antibacterial activity against Escherichia coli ATCC […] assessed as bacterial growth inhibition incubated for 24 hrs by resazurin based microdilution assay. The assay is classed as functional.
In assay [18] the test system is Candida albicans. Kind of assay: Antifungal activity against Candida albicans NEWP031 assessed as bacterial growth inhibition incubated for 24 hrs by resazurin based microdilution assay. It counts as functional.
Assay [19] addresses T1, Quinolone resistance protein NorA (Staphylococcus aureus) (UniProt P0A0J7).
T1 sequence (whole entry): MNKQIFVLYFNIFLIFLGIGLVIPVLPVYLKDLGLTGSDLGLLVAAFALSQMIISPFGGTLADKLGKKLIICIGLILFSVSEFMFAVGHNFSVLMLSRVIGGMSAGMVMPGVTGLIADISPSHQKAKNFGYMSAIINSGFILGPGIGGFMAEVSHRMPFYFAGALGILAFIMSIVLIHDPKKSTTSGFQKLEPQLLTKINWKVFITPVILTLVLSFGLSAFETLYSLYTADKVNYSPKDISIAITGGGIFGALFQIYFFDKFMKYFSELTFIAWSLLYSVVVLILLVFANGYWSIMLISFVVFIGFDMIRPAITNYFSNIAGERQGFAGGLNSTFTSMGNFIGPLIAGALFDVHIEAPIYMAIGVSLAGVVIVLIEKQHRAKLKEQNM
Kind of assay: Potentiation of EtBr-induced inhibition of NorA efflux in Staphylococcus aureus 1199B overexpressing NorA assessed as reduction in EtBr MIC at 256 ug/ml incubated for 24 hrs by resazurin based assay (Rvb= 32 ug/ml). The following applies: dose 256.0 µg/ml.

The target of assay [20] is T1, Quinolone resistance protein NorA (Staphylococcus aureus). Kind of assay: Potentiation of norfloxacin-induced inhibition of NorA efflux in Staphylococcus aureus 1199B overexpressing NorA assessed as reduction in norfloxacin MIC at 1/8 times of MIC incubated for 24 hrs by CLSI based assay (Rvb= 322.54 ug/ml).
In assay [21] the target is Multidrug export protein MepA (Staphylococcus aureus (strain NCTC 8325)) (UniProt Q2G140). Kind of assay: Potentiation of EtBr-induced inhibition of MepA efflux in Staphylococcus aureus K2068 overexpressing MepA assessed as reduction in EtBr MIC at 1/8 times of MIC incubated for 24 hrs by CLSI based assay (Rvb= 322.54 ug/ml).
The test system of assay [22] is Staphylococcus aureus. Description: Antibacterial activity against Staphylococcus aureus 1199B overexpressing NorA assessed as bacterial growth inhibition incubated for 18 hrs by MTT assay. The assay is classed as functional.
Assay [23] deals with Staphylococcus aureus. Description: Antibacterial activity against tetracycline-resistant Staphylococcus aureus XU212 assessed as bacterial growth inhibition incubated for 18 hrs by MTT assay. The assay is classed as functional.
In assay [24] the test system is Staphylococcus aureus. Description: Antibacterial activity against Staphylococcus aureus ATCC25923 assessed as bacterial growth inhibition incubated for 18 hrs by MTT assay. The assay is classed as functional. A general note: Tetrazolium assays rely on reduction of a dye to a coloured formazan, in cell work by metabolically active cells.
The subject of assay [25] is Staphylococcus aureus. Description: Antibacterial activity against Staphylococcus aureus RN4220 assessed as bacterial growth inhibition incubated for 18 hrs by MTT assay. It counts as functional.
For assay [26], the system named is Staphylococcus aureus. Kind of assay: Antibacterial activity against Staphylococcus aureus EMRSA-15 assessed as bacterial growth inhibition incubated for 18 hrs by MTT assay. It counts as functional.
Assay [27] has as its system Staphylococcus aureus. Description: Antibacterial activity against Staphylococcus aureus EMRSA-16 assessed as bacterial growth inhibition incubated for 18 hrs by MTT assay. The assay is classed as functional.
Assay [28] has as its system Staphylococcus aureus. Kind of assay: Synergistic antibacterial activity against Staphylococcus aureus 1199B overexpressing NorA assessed as fractional Inhibitory concentration index at 64 ug/ml in presence of norfloxacin by broth dilution method. It counts as functional. As to conditions: dose 64 µg/ml.
In assay [29] the target is T1, Quinolone resistance protein NorA (Staphylococcus aureus). The following applies: 1199B, dose 64.0 µg/ml.
Assay [30] concerns Staphylococcus aureus. Kind of assay: Antibacterial activity against norfloxacin resistant Staphylococcus aureus IS-58 overexpressing TetK efflux pump gene assessed as bacterial growth inhibition incubated for 18 to 24 hrs by NCCLS protocol based microdilution method. The assay is classed as functional. As to conditions: time 18-24 hrs.
Assay [31] has as its system Staphylococcus aureus. Kind of assay: Antibacterial activity against norfloxacin resistant Staphylococcus aureus RN4220 overexpressing MsrA efflux pump gene assessed as bacterial growth inhibition incubated for 18 to 24 hrs by NCCLS protocol based microdilution method. It counts as functional. The following applies: time 18-24 hrs.
For assay [32], the system named is Staphylococcus aureus. Kind of assay: Antibacterial activity against norfloxacin resistant Staphylococcus aureus 1199B overexpressing NorA efflux pump gene assessed as bacterial growth inhibition incubated for 18 to 24 hrs by NCCLS protocol based microdilution method. It counts as functional. The following applies: time 18-24 hrs.
The target of assay [33] is T1, Quinolone resistance protein NorA (Staphylococcus aureus). Description: Inhibition of NorA efflux pump in Staphylococcus aureus 1199B overexpressing NorA efflux pump assessed as reduction in EtBr MIC at 128 ug/ml using EtBr as substrate by resazurin based assay (Rvb= 32 ug/ml). As to conditions: dose 128.0 µg/ml.

`CN(CC[C@H](N)CC(=O)N[C@H]1C=C[C@H](n2ccc(N)nc2=O)O[C@@H]1C(=O)O)C(=N)N` [BLASTICIDIN_S]: the MIC came to 50 µg/mL (≈ 118 µM) in assay [1]; 100 µg/mL (≈ 237 µM) in [2]; 25 µg/mL (≈ 59.2 µM) in assay [3]; 100 µg/mL (≈ 237 µM) in assay [4]; 25 µg/mL (≈ 59.2 µM) in [5]; 200 µg/mL (≈ 473 µM) in assay [6]. In addition, the MIC in assay [7] turned out to be 50 µg/mL (≈ 118 µM).
Regarding `O=C(O)/C=C/c1ccc(O)c(O)c1` [CAFFEIC ACID], the MIC in [8], in [9] and in assay [10] was 1020 µg/mL (≈ 5680 µM) each time.
For `COc1cc(-c2cc(=O)c3c(O)cc(O)cc3o2)ccc1O` [CHRYSOERIOL], in assay [11], the MIC was determined as 256 µg/mL (≈ 853 µM). In assay [12], the “fractional inhibitory concentration index (FICI)” value worked out at 0.266.
As to `C=CCc1ccc(OC)cc1` [ESTRAGOLE], the MIC was not below 1020 µg/mL in assay [13]; not below 1020 µg/mL in assay [14]; not below 1020 µg/mL in [15]; not below 1020 µg/mL in [16]; 2050 µg/mL (≈ 13800 µM) in assay [17]; 2050 µg/mL (≈ 13800 µM) in assay [18]. For the same compound, the results for the MIC in assay [19], in [20] and in assay [21] were 16 µg/mL, 256 µg/mL and 256 µg/mL, respectively.
`O=C(O)c1cc(O)c(O)c(O)c1` [GALLIC ACID]: the MIC in [8], in assay [9] and in assay [10] was 1020 µg/mL (≈ 6020 µM) throughout.
Turning to `O=c1c(-c2ccc(O)cc2)coc2cc(O)cc(O)c12` [GENISTEIN], the MIC in [22] was determined as 32 µg/mL (≈ 118 µM); in assay [23] it was 32 µg/mL (≈ 118 µM); in [24], 32 µg/mL (≈ 118 µM); in assay [25], 32 µg/mL (≈ 118 µM); in assay [26] it was 32 µg/mL (≈ 118 µM); in assay [27], 8 µg/mL (≈ 29.6 µM). The MIC in [29] turned out to be 16 µg/mL (≈ 59.2 µM). Also, the “fractional inhibitory concentration index (FICI)” value in [28] turned out to be 0.38.
Consider `COc1c2ccoc2c(OC)c2oc(=O)ccc12` [ISOPIMPINELLIN], for which the MIC was more than 256 µg/mL in [30], more than 256 µg/mL in assay [31], more than 256 µg/mL in [32] and 4 µg/mL in assay [33].
With `COc1cc2oc(-c3ccc(O)cc3)c(OC)c(=O)c2c(O)c1OC` [PENDULETIN], the MIC in [11] is 256 µg/mL (≈ 743 µM). Besides, the “fractional inhibitory concentration index (FICI)” value in assay [12] is 0.079.
